Experimental data as given in PMC6116245 (Viruses, 2018).
In brackets after ≈: the same amount, converted by molar mass. Several values for one entry are separate records, joined by “and”; a condition that tells them apart may be missing. Identical values can stand only once. Entries after “also recorded” stand apart in the source; their conditions may differ. Like-named read-outs stand apart in the source and are kept apart here.

Columns and labels:
[1] = test system: FCV RNA in infected CRFK cells; assay: FCV genome reduction assay by RT-qPCR; format: cell-based, Feline calicivirus; conditions: 24 h, MOI 0.0005
[2] = test system: human GI.1 norovirus replicon; set-up: method as in ref 59 = [59]; conditions: cell culture; cited from earlier work
murine norovirus [3] = test system: murine norovirus; set-up: method as in ref 47, 57 = [47]; conditions: cell culture-based assays; cited from earlier work
human norovirus replicon = test system: human norovirus replicon; set-up: method as in ref 47, 57 = [47]; conditions: cell culture-based assays; cited from earlier work
human norovirus = test system: human norovirus; set-up: method as in ref 60 = [60]; conditions: B-cell culture system; cited from earlier work
FCV strain F-9 = assay: FCV plaque reduction assay in CRFK cells; conditions: for Therapeutic index (TI = CC50/EC50): CRFK CC50 / FCV plaque reduction EC50; for Antiviral effect against FCV in cell culture (in words): plaque reduction assay
[4] = Cytotoxicity study, CellTitre-Blue viability assay; conditions: cat
[5] = test system: Crandell Rees Feline Kidney (CRFK) cells; assay: Cytotoxicity study, CellTitre-Blue viability assay; conditions: read-out: Cell Viability CC50; CRFK cells, 48 h, CellTitre-Blue
[6] = molecular target: FCV RdRp (recombinant FCV Pro-Pol) (Feline calicivirus, UniProt Q66914); assay: Fluorescent RdRp assay (PicoGreen, poly(C) template); conditions: for RdRp Activity [% of Mock at 10 µM]: 10 µM compound, remaining activity relative to mock; for Reduction of RdRp activity compared to mock controls: fixed concentration of 10 µM
[7] = molecular target: FCV protease (recombinant FCV Pro-Pol) (Feline calicivirus, UniProt Q66914); assay: Protease FRET activity assay; format: biochemical, Feline calicivirus (FCV Urbana); conditions: for Inhibitory effect against FCV protease (in words): FRET assay, up to 50 µM
in vitro = conditions: cat, Cell Viability CC50
[8] = test system: Crandell Rees Feline Kidney (CRFK) cells
FCV [9] = test system: FCV; set-up: method as in ref 29, 30 = [29]; conditions: cell-based assays; read-out: EC50 against FCV; cited from earlier work
FCV [10] = test system: FCV; set-up: method as in ref 26 = [26]; conditions: read-out: EC50 against FCV in vitro; cited from earlier work
rotavirus = test system: rotavirus; set-up: method as in ref 54, 63 = [54]; conditions: cell culture; cited from earlier work
adenovirus = test system: adenovirus; set-up: method as in ref 54, 63 = [54]; conditions: cell culture; cited from earlier work
canine coronavirus = test system: canine coronavirus; set-up: method as in ref 54, 63 = [54]; conditions: cell culture; cited from earlier work
GI norovirus replicon = test system: GI norovirus replicon; set-up: method as in ref 64 = [64]; conditions: cleared the replicon from the host cells; cited from earlier work
murine norovirus [11] = test system: murine norovirus; set-up: method as in ref 64 = [64]; conditions: cited from earlier work
[12] = in vivo; cited from earlier work
chikungunya replicon = test system: chikungunya replicon; set-up: method as in ref 75 = [75]; conditions: cited from earlier work
HCV infectious virus = conditions: read-out: EC50 infectious HCV in cell cultures; cited from earlier work
[13] = test system: human norovirus protease (genogroup I and II); set-up: method as in ref 29, 52 = [29]; conditions: FRET-based assays; cited from earlier work
[14] = in vivo; cited from earlier work; remark: listed apart in the source
FCV [15] = test system: FCV; set-up: method as in ref 25 = [25]; conditions: in vitro assays; cited from earlier work
human norovirus RdRp = test system: human norovirus RdRp; set-up: method as in ref 59 = [59]; conditions: cited from earlier work
murine norovirus RdRp = test system: murine norovirus RdRp; set-up: method as in ref 59 = [59]; conditions: cited from earlier work
[16] = Feline calicivirus, CRFK, 24 h, read-out: Plaque Reduction Assay EC50, FCV in CRFK cells, 24 h
[17] = read-out: Plaque Reduction Assay EC50, FCV in CRFK cells, 24 h
[18] = Crandell Rees Feline Kidney (CRFK) cells, Cell Viability CC50, CRFK cells, 48 h, CellTitre-Blue
[19] = FRET, 50 µM substrate, read-out: In vitro Protease IC50
[20] = Feline calicivirus, CRFK, 24 h, read-out: Inhibition of plaque formation
[21] = Feline calicivirus, CRFK, 24 h, read-out: Plaque Reduction Assay EC50

Sequence of FCV RdRp (recombinant FCV Pro-Pol) (Q66914 1072-1763): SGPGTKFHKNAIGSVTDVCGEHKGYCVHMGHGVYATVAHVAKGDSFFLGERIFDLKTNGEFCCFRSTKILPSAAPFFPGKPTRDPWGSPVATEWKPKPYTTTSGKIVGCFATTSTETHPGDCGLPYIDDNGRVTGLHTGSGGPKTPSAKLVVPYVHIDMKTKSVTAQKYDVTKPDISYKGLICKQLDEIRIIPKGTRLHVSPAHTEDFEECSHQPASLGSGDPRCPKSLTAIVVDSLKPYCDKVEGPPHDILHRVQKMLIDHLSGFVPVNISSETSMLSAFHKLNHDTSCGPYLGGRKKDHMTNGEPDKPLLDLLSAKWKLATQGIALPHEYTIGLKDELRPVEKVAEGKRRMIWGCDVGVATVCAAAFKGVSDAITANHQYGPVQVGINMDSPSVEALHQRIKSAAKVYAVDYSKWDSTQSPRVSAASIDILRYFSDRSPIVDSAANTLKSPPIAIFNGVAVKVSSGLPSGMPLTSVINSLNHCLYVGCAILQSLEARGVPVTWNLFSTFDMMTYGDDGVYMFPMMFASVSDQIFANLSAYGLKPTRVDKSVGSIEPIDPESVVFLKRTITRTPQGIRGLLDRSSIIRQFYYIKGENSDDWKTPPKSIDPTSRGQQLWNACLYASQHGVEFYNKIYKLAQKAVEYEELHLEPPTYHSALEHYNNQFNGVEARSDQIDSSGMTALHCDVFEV
Sequence of FCV protease (recombinant FCV Pro-Pol) (Q66914 1072-1763): as above

Compound: C[C@@]1(O)[C@H](O)[C@@H](CO)O[C@H]1n1ccc(N)nc1=O [2CMC, 2′-C-methylcytidine]
- Reduction of FCV RNA levels compared to mock-treated cells ([1]; 10 µM): 95%
- EC50 [2]: 8.2 µM
- EC50 (murine norovirus [3]): ~2 µM
- EC50 (human norovirus replicon): ~18 µM
- EC50 (human norovirus): 0.3 µM
- Therapeutic index (TI = CC50/EC50) (FCV strain F-9): > 40
- EC50 (FCV strain F-9; [16]): 2.5 µM
- EC50 (FCV strain F-9; [17]): 2.6 µM
- CC50 at 48 h [4, 18]: > 100 µM

Compound: COc1ccc2c(c1)[C@@H]1C[C@]1(C(=O)N1[C@@H]3CC[C@H]1CN(C)C3)Cn1c-2c(C2CCCCC2)c2ccc(C(=O)NS(=O)(=O)N(C)C)cc21 [Beclabuvir]
- CC50 at 48 h [4, 18]: < 30 µM
- CC50 [5]: 27.5 µM
- RdRp Activity [% of Mock at 10 µM] [6]: 92.2%
- Reduction of RdRp activity compared to mock controls [6]: ≤ 10%

Compound: CC(C)C[C@H](NC(=O)[C@@H](NC(=O)N[C@@H](Cc1ccccc1)C(=O)O)[C@@H]1CCN=C(N)N1)C(=O)N[C@H](C=O)Cc1ccccc1 [Chymostatin, chymostatin]
- Inhibitory effect against FCV protease (in words) [7]: no inhibitory effect
- IC50 [7, 19]: > 50 µM

Compound: CC(=O)OCC(CCn1cnc2cnc(N)nc21)COC(C)=O [Famciclovir]
- CC50 at 48 h (in vitro): > 100 µM
- EC50 (FCV strain F-9; [16]): > 50 µM
- inhibition at 50 µM (FCV strain F-9; Feline calicivirus, CRFK, read-out: Inhibition of plaque formation): 10%
- Antiviral effect against FCV in cell culture (in words) (FCV strain F-9): no antiviral effect observed

Compound: CC(C)C[C@H](NC(=O)OCc1ccccc1)C(=O)N[C@@H](CC1CCNC1=O)C(O)S(=O)(=O)O (some centres unmarked) [GC376]
- IC50 [7, 19]: 18 µM and 18.7 µM
- CC50 [8]: > 100 µM
- EC50 (FCV [9]): 35 µM and 35.2 µM
- EC50 (FCV strain F-9; [17]): > 10 µM

Compound: CC(C)C[C@H](NC(=O)OCc1ccccc1)C(=O)N[C@@H](C[C@@H]1CCNC1=O)C(O)S(=O)(=O)[O-].[Na+] (some centres unmarked) [GC376]
- Inhibition of FCV protease ([7]; 50 µM): 75%
- Antiviral effect against FCV in cell culture (in words) (FCV strain F-9): did not display antivirals effects

Compound: O=C(O)c1ccc2c(c1)nc(-c1ccc(OCc3cc(N4CCCC4=O)ccc3-c3ccc(Cl)cc3)cc1F)n2C1CCCCC1 [JTK-109]
- RdRp Activity [% of Mock at 10 µM] [6]: 89.8%
- Reduction of RdRp activity compared to mock controls [6]: ≤ 10%

Compound: OC(c1cc(C(F)(F)F)nc2c(C(F)(F)F)cccc12)C1CCCCN1 (centres unmarked) [Mefloquine]
- EC50 (FCV [10]): 6.03 µM

Compound: CC(C)C[C@H](NC(=O)[C@H](Cc1cccc2ccccc12)NC(=O)OCc1ccccc1)C(=O)N[C@H](C=O)C[C@@H]1CCNC1=O [NPI52]
- EC50 (FCV [9]): 0.02 µM

Compound: CC(=O)Oc1ccccc1C(=O)Nc1ncc([N+](=O)[O-])s1 [Nitazoxanide, nitazoxanide]
- IC50 [7]: > 10 µM
- Reduction of FCV RNA levels compared to mock-treated cells ([1]; 2.5 µM): 80%
- EC50 rotavirus replication (rotavirus): 0.5 µg/mL (≈ 1.63 µM)
- EC50 adenovirus replication (adenovirus): 0.2 µg/mL (≈ 0.651 µM)
- EC50 canine coronavirus replication (canine coronavirus): 1 µg/mL (≈ 3.25 µM)
- Concentration reported to inhibit GI norovirus replicon replication (GI norovirus replicon): 5 µg/mL
- Activity against murine norovirus (in words) (murine norovirus [11]): ineffective
- Side-effects observed in cats [12]: diarrhea and vomiting
- Therapeutic index (TI = CC50/EC50) (FCV strain F-9): 21.1
- EC50 (FCV strain F-9; [16]): 0.5 µM
- EC50 (FCV strain F-9; Feline calicivirus, CRFK, read-out: Plaque reduction EC50, FCV in CRFK cells, same value given in µg/mL): 0.2 µg/mL
- EC50 (FCV strain F-9; [17]): 0.6 µM
- CC50 at 48 h [4, 18]: 12.7 µM
- IC50 [6]: > 10 µM

Compound: Cc1nc(N=Nc2cc(S(=O)(=O)O)c3cc([N+](=O)[O-])cc(S(=O)(=O)O)c3c2)c(COP(=O)(O)O)c(C=O)c1O [PPNDS]
- Inhibition of plaque formation (FCV strain F-9; 10 µM, 24 h): < 10%
- Antiviral effect against FCV in cell culture (in words) (FCV strain F-9): did not display antivirals effects
- EC50 (FCV strain F-9; [17]): > 10 µM
- CC50 [5]: > 100 µM
- RdRp Activity [% of Mock at 10 µM] [6]: 7.4%
- Reduction of RdRp activity compared to mock controls [6]: 92.6%
- IC50 ([6]; read-out: RdRp Activity IC50, dose-response 0.1-100 µM): 2.7 µM

Compound: O=c1c(O)c(-c2ccc(O)c(O)c2)oc2cc(O)c(O)c(O)c12 [Quercetagetin, quercetagetin]
- IC50 (chikungunya replicon): 43.5 µM
- EC50 (HCV infectious virus): 40.2 µM
- inhibition at 10 µM (FCV strain F-9; [20]): < 10%
- EC50 (FCV strain F-9; [21]): > 10 µM
- Antiviral effect against FCV in cell culture (in words) (FCV strain F-9): did not display antivirals effects; also recorded: did not inhibit FCV plaque formation
- IC50 [6]: 2.8 µM
- RdRp Activity [% of Mock at 10 µM] [6]: 11.7%
- Reduction of RdRp activity compared to mock controls [6]: 88.3%

Compound: CCOC(=O)/C=C/[C@H](C[C@@H]1CCNC1=O)NC(=O)[C@@H](CC(=O)[C@@H](NC(=O)c1cc(C)on1)C(C)C)Cc1ccc(F)cc1 [Rupintrivir, rupintrivir]
- IC50 [7]: > 50 µM
- Inhibitory effect against FCV protease (in words) [7]: no inhibitory effect
- EC50 (FCV [9]): > 50 µM
- IC50 [13]: < 1 µM
- CC50 at 48 h [4, 18]: > 100 µM

Compound: CC(C)OC(=O)[C@H](C)N[P@](=O)(OC[C@H]1O[C@@H](n2ccc(=O)[nH]c2=O)[C@](C)(F)[C@@H]1O)Oc1ccccc1 [Sofosbuvir]
- inhibition at 10 µM (FCV strain F-9; [20]): < 10%
- EC50 (FCV strain F-9; [21]): > 10 µM
- CC50 at 48 h [4]: > 100 µM

Compound: NC(=O)c1nc(F)c[nH]c1=O [T-705, Favipiravir]
- inhibition at 10 µM (FCV strain F-9; [20]): < 10%
- EC50 (FCV strain F-9; [16]): > 10 µM
- CC50 at 48 h [4, 18]: > 100 µM

Compound: COc1ccc2c(c1)C=C1Cn3c-2c(C2CCCCC2)c2ccc(cc23)C(=O)NS(=O)(=O)N(C)CCOCCN(C)C1=O [TMC-647055]
- CC50 at 48 h [4, 18]: < 30 µM
- CC50 [5]: 27.1 µM
- RdRp Activity [% of Mock at 10 µM] [6]: 93.5%
- Reduction of RdRp activity compared to mock controls [6]: ≤ 10%

Compound: CC(C)[C@H](N)C(=O)O[C@@H]1[C@@H](CO)O[C@@H](n2ccc(N)nc2=O)[C@]1(C)O [Valopicitabine]
- Adverse events [14]: dose-related gastrointestinal adverse events

Compound: COC(=O)/C=C/c1cccc(N(Cc2ccc(-c3ccc(N(C)C)cc3)cc2)C(=O)C2CCCCC2)c1 [fexaramine]
- Blocking of FCV entry (in words) (FCV [15]): effective at blocking FCV entry

Compound: C[C@@]1(O)[C@H](O)[C@@H](COP(=O)(O)OP(=O)(O)OP(=O)(O)O)O[C@H]1n1ccc(N)nc1=O [tri-phosphorylated 2CMC]
- IC50 (human norovirus RdRp): 2.4 µM
- IC50 (murine norovirus RdRp): 1.4 µM
